Data taken from ChEMBL document CHEMBL1148544, “Discovery, SAR, and X-ray structure of novel biaryl-based dipeptidyl peptidase IV inhibitors” (Bioorg Med Chem Lett, 2006).

What was measured:
Dipeptidyl peptidase 4 = Dipeptidyl peptidase 4 (Homo sapiens, UniProt P27487)
[1] = Stability in human liver microsomes at 1 uM; type: ADME, Microsome; conditions: read-out: Stability
[2] = Permeability from apical to basolateral side of the Caco-2 cell membrane at 10 uM; type: ADME, cell-based; conditions: human
[3] = Permeability from basolateral to apical side of the Caco-2 cell membrane at 10 uM; type: ADME, cell-based; conditions: human

Sequence of Dipeptidyl peptidase 4 (P27487 whole entry): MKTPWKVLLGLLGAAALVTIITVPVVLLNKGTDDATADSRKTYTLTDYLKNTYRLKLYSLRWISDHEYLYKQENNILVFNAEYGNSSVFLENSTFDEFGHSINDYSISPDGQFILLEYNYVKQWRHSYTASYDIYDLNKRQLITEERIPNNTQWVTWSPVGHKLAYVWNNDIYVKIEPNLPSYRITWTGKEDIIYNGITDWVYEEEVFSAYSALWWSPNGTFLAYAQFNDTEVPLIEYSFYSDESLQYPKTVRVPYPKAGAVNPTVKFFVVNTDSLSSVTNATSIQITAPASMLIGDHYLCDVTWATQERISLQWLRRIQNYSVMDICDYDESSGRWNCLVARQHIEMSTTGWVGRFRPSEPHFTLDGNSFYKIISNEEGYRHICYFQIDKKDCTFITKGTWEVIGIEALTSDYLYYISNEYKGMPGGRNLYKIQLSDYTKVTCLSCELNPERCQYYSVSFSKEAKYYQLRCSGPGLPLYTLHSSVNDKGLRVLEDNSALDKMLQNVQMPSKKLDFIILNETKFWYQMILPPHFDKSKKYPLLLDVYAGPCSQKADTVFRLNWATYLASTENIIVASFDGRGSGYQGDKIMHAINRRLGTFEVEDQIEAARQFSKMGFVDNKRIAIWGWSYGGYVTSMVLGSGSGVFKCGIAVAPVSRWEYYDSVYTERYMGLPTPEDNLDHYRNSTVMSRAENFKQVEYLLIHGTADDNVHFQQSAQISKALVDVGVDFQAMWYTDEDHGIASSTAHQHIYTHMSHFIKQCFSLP

Row | SMILES | Ki (Dipeptidyl peptidase 4) [µM] | remaining at 1 µM [1] [%] | Papp A→B at 10 µM [2] [nm/s] | Papp B→A at 10 µM [3] [nm/s]
1 | N[C@@H](Cc1c[nH]c2ccccc12)C(=O)N1CCSC1 | > 12.8 | – | – | –
2 | N[C@@H](Cc1cccc2ccccc12)C(=O)N1CCSC1 | > 12.8 | – | – | –
3 | N[C@@H](Cc1ccc(-c2ccccc2)cc1)C(=O)N1CCSC1 | – | 62 | 45.6 | 15
4 | N#C[C@@H]1CCCN1C(=O)[C@@H](N)Cc1ccc(-c2ccc(F)cc2)cc1 | – | 6.7 | 72.1 | 44.5
5 | N#C[C@@H]1CCCN1C(=O)[C@@H](N)Cc1ccc(-c2ccc(F)cc2F)cc1 | – | 73.9 | 49.3 | 49.3
6 | N#C[C@@H]1CCCN1C(=O)[C@@H](N)Cc1ccc(-c2ccccc2)cc1 | – | 52.3 | 26.6 | 38.2
7 | N[C@@H](Cc1ccc(-c2ccccc2)cc1)C(=O)N1CCC[C@H]1CO | > 12.8 | – | – | –
8 | N[C@@H](Cc1ccc(-c2ccc(F)cc2)cc1)C(=O)N1CCSC1 | – | 78.5 | 168 | 56.1
9 | CC1(C)OCCN1C(=O)[C@@H](N)Cc1ccc(-c2ccccc2)cc1 | > 12.8 | – | – | –
10 | N[C@@H](Cc1ccc(-c2ccccc2)cc1)C(=O)N1CCC[C@H]1COCc1ccccc1 | > 12.8 | – | – | –
